Data: US20180087079A1, “METHODS OF USING CELL-CYCLE INHIBITORS TO MODULATE ONE OR MORE PROPERTIES OF A CELL CULTURE” (AMGEN INC., priority 2013, published 2018)

Tested on: transfected CHO cells expressing recombinant human monoclonal antibody (cell line 1)
Assay: 24-deep well culture, cell line 1: VCD, viability, titer, qP
Assay type: cell-based, Chinese hamster
Settings: Cell Line 1
Method: Transfected CHO cells expressing a recombinant human monoclonal antibody (mAb) are cultured in 24-deep well plates with seeding density at 1×10^7/mL for five days. At certain time periods, samples of the cultures are taken and evaluated for viable cell density (VCD; expressed in 10^6 cells/mL); percent viability (as determined by trypan blue exclusion); titer of recombinant protein (expressed in grams of protein per liter of culture, or g/L, as determined by Protein A affinity HPLC); qP, or specific productivity (expressed in picograms of recombinant protein per cell per day, or pg/c/d), the presence or absence of high molecular weight substances (usually an indicator of protein aggregation; expressed as % of the total protein); and the relative percentage of Mannose 5, a major intermediate glyco-form that attaches to N297 of the mAb. N-linked glycosylation has an impact on the tertiary structure of the antibody and may affect Fc mediated antibody effector functions. The majority of the human Fc glycans are complex biantennary structures with galactose as the prevalent terminal sugar. Immature glyco-forms, such as high-mannose glycol-forms (Man5-9), are of concern due to potential higher plasma clearance rate (as compared to the clearance rate of complex glycan linked mAbs).
Compounds are further evaluated essentially as described in Example 2 herein. Briefly, transfected CHO cells expressing recombinant human monoclonal antibody (mAb; two different cell lines expressing two different mAb, referred to as cell line 1 and cell line 2) are cultured in 24-deep well plates in the presence or absence of the compounds. At specified time points, samples of the cultures are taken and evaluated for viable cell density (VCD; expressed in 10^6 cells/mL); percent viability (as determined by any method known in the art); titer of recombinant protein (expressed in grams of protein per liter of culture, or g/L, as determined by Protein A affinity HPLC); qP, or specific productivity (expressed in picograms of recombinant protein per cell per day, or pg/c/d). Additional parameters measure include the presence or absence of high molecular weight substances (usually an indicator of protein aggregation; expressed as % of the total protein); and the relative percentage of Mannose 5. For comparison purposes, Compounds A and B, which had been previously tested, were tested again.

| Structure (SMILES) | Titer (1.25 microM, D 1) | VCD (1.25 microM, D 1) | Viability (1.25 microM, D 1) | qP (1.25 microM, D 1) | Titer (1.25 microM, D 2) | VCD (1.25 microM, D 2) | Viability (1.25 microM, D 2) | qP (1.25 microM, D 2) | Titer (1.25 microM, D 3) | VCD (1.25 microM, D 3) | Viability (1.25 microM, D 3) | qP (1.25 microM, D 3) | Titer (1.25 microM, D 4) | VCD (1.25 microM, D 4) | Viability (1.25 microM, D 4) | qP (1.25 microM, D 4) | further results |
| --- | --- | --- | --- | --- | --- | --- | --- | --- | --- | --- | --- | --- | --- | --- | --- | --- | --- |
| CC1(C)CN(c2ccc(Nc3ncc4c5ccncc5n(-c5ccc(F)cc5F)c4n3)nc2)CCN1 [Compound J, 9-(2,4-difluorophenyl)-N-(5-(3,3-dimethylpiperazin-1-yl)pyridin-2-yl)-9H-pyrido[4′,3′:4,5]pyrrolo[2,3-d]pyrimidin-2-amine] | 0.44 g/L | 11.54 e6/mL | 94.24% | 38.41 pg/c/d | 0.64 g/L | 11.25 e6/mL | 87.53% | 57.19 pg/c/d | 0.86 g/L | 14.06 e6/mL | 84.29% | 61.40 pg/c/d | 1.08 g/L | 17.54 e6/mL | 84.81% | 61.77 pg/c/d | Titer (0.625 microM, D 1): 0.45 g/L; VCD (0.625 microM, D 1): 11.40 e6/mL; Viability (0.625 microM, D 1): 94.94%; qP (0.625 microM, D 1): 39.77 pg/c/d; Titer (0.625 microM, D 2): 0.68 g/L; VCD (0.625 microM, D 2): 14.02 e6/mL; Viability (0.625 microM, D 2): 91.87%; qP (0.625 microM, D 2): 48.50 pg/c/d; Titer (0.625 microM, D 3): 0.88 g/L; VCD (0.625 microM, D 3): 16.48 e6/mL; Viability (0.625 microM, D 3): 90.31%; qP (0.625 microM, D 3): 53.61 pg/c/d; Titer (0.625 microM, D 4): 0.99 g/L; VCD (0.625 microM, D 4): 19.37 e6/mL; Viability (0.625 microM, D 4): 89.98%; qP (0.625 microM, D 4): 51.10 pg/c/d |
| CC1(C)C=CC2(CC1)c1cnccc1-c1cnc(Nc3ccc(N4CCNCC4)nn3)nc12 (stereo not shown) [Compound K, 4,4-dimethyl-N-(6-(piperazin-1-yl)pyridazin-3-yl)spiro[cyclohex[2]ene-1,9′-pyrido[4′,3′:3,4]cyclopenta[1,2-d]pyrimidin]-2′-amine] | 0.48 g/L | 11.87 e6/mL | 95.72% | 40.15 pg/c/d | 0.72 g/L | 13.04 e6/mL | 92.13% | 54.94 pg/c/d | 1.01 g/L | 16.39 e6/mL | 90.36% | 61.61 pg/c/d | 1.07 g/L | 22.55 e6/mL | 91.21% | 47.60 pg/c/d | Titer (2.5 microM, D 1): 0.48 g/L; VCD (2.5 microM, D 1): 11.77 e6/mL; Viability (2.5 microM, D 1): 96.38%; qP (2.5 microM, D 1): 40.78 pg/c/d; Titer (2.5 microM, D 2): 0.72 g/L; VCD (2.5 microM, D 2): 12.07 e6/mL; Viability (2.5 microM, D 2): 90.97%; qP (2.5 microM, D 2): 59.38 pg/c/d; Titer (2.5 microM, D 3): 1.05 g/L; VCD (2.5 microM, D 3): 15.31 e6/mL; Viability (2.5 microM, D 3): 89.25%; qP (2.5 microM, D 3): 68.37 pg/c/d; Titer (2.5 microM, D 4): 1.22 g/L; VCD (2.5 microM, D 4): 21.06 e6/mL; Viability (2.5 microM, D 4): 89.80%; qP (2.5 microM, D 4): 58.10 pg/c/d |
